Source: patent US11773087B2, “GLP-1R receptor agonist compound and use thereof” (SUZHOU VINCENTAGE PHARMA CO., LTD, priority 2020, dated 2023)
Like-named read-outs stand apart in the source and are kept apart here.

Assays:
human GLP-1R receptor = molecular target: T1, human GLP-1R receptor (Homo sapiens, UniProt P43220); assay: GLP-1R cAMP assay (HTRF, HEK293 cells expressing GLP-1R); format: cell-based; details: agonistic activity, GLP-1R HEK293 cells
T1 construct: expressed in transfected cells; host or cells: 'GLP-1R cells' (frozen vial)
Experimental: Test Embodiment 1: Activity Test of GLP-1R cAMP Assay
This experiment aims to verify the agonistic activity of the compound of the present disclosure on human GLP-1R receptor.
Compounds were diluted 4-fold starting at 100 μM from DMSO using Bravo for a total of 10 points.
The reference compound polypeptide GLP-1 (7-37) was diluted 4-fold starting from 500 nM in DMSO using Bravo for a total of 10 points.
b) Preparation of Cell Suspension: • 1) 1 vial of GLP-1R cells was quickly thawed in a 37° C. water bath. • 2) The suspension of the cells was transferred to 10 mL of HBSS in a 15 mL conical tube. • 3) The cells were centrifuged at 1000 rpm for 5 min at room temperature to precipitate the cells. • 4) The supernatant was gently aspirated, and being careful not to aspirate the cells. • 5) The cells were relaxed by flicking the precipitation, and then the cell precipitation was re-suspended in 10 mL of HBSS. A sterile pipette was used to move fluid up and down to remove clumps. • 6) The concentration of cells was counted and the cell viability on Vi-cell was determined. • 7) GLP-1R cells were re-suspended in the test buffer at a concentration of 2.0×E5/mL cells. • 8) 10 μL of GLP-1R cell was transferred to OptiPlate-384 well plate.
c) Transfer of Compound: • 1) 100 nL of compound was transferred to OptiPlate-384 plate using Echo Transfer. • 2) The plate was rotated at 1000 rpm for 5 seconds.
d) HTRF cAMP Analysis of Agonists: • 1) The plate was incubated at room temperature for 30 minutes before adding detection reagents. • 2) An electric multi-channel pipette was used to add 10 μL of detection reagents respectively. • 3) The 384 well plate was covered with TopSeal-A membrane and incubated for 60 min at room temperature.
TopSeal-A was unloaded and read on EnVision.

[1] = Pharmacokinetic evaluation of cynomolgus monkey (IV and oral); format: in vivo, cynomolgus monkeys; details: for AUC(0-t): read-out: AUC0-24 h
Experimental: Test Embodiment 3: Pharmacokinetic Evaluation of Cynomolgus Monkey
The drug concentrations in the plasma of cynomolgus monkeys were tested at different times after intravenous injection and oral administration of the compounds using cynomolgus monkeys as test animals. The pharmacokinetic behavior of the compounds of the present disclosure in cynomolgus monkeys was studied and their pharmacokinetic characteristics were evaluated. In each group of embodiments, 2 cynomolgus monkeys with similar body weight were selected, administered at a dose of 1 mg/kg by intravenous injection and at a dose of 50 mg/kg by oral administration for a single administration.
Age of cynomolgus monkeys at the time of administration: about 2-4 years old; body weight: 3.0-4.6 kg at the beginning of administration; 4 monkeys; sex: male.
Intravenous group: The final concentration of 0.5 mg/mL was prepared for intravenous administration, and the preparation solvent was 5% DMSO+45% PEG400+50% water, and the preparation was in a clarified solution.
Oral group: The final concentration of 10 mg/mL was prepared for oral administration, and the preparation solvent was 5% DMSO+45% PEG400+50% water, and the preparation was in homogeneous suspension.
(§1) Blood was collected from animals at 5 min, 15 min, 30 min, 1 h, 2 h, 4 h, 7 h, 12 h, 24 h time points after administration. The LC-MS/MS analysis method was used to detect the content of the compound in plasma, and the lower limit of quantification of the method was 20 ng/mL. Concentration data in plasma was counted using the metabolic kinetic data analysis software WinNonlin 7.0, and the pharmacokinetic parameters were calculated using the non-compartmental analysis (NCA), as shown in Table 3 below.
Determination of the content of test compounds in the plasma of cynomolgus monkeys after drug administration: After blood samples were collected, placed in a marked ice-bath centrifuge tube, and rapidly centrifuged to separate the plasma. Centrifugation conditions: 4000 rpm, 10 minutes, 4° C., and plasma was stored at −40° C. or less for testing.

[2] = Pharmacokinetic evaluation in rats (gavage); format: in vivo; details: rat, 10 mg/kg single oral gavage, plasma
Experimental: Test Embodiment 2: Pharmacokinetic Evaluation in Rats
as §1, with “The drug concentrations in the plasma of rats were tested at different times after the administration of the compounds by gavage using rats as test animals. The pharmacokinetic behavior of the compounds of the present disclosure in rats was studied and their pharmacokinetic characteristics were evaluated. In each group of embodiments, 3 rats with similar body weight were selected and administered orally at a dose of 10 mg/kg for a single administration. Blood” for “Blood”, “at” for “at 5 min,”, “h, 6 h, 8” for “h, 7”, “Table 2” for “Table 3”
Drug configuration: A certain amount of drug was taken, added with 2% Klucel LF+0.1% Tween 80 aqueous solution to prepare a clear solution or a uniform suspension.
Administration: Rats were administered by gavage after overnight fasting at a dose of 10 mg/kg.
Operation: Rats were administered by gavage, and blood was collected from the tail vein before administration and 15 min, 30 min, 1 h, 2 h, 4 h, 6 h, 8 h, 12 h, 24 h after administration, placed in heparinized sample tubes, centrifuged at 4° C., 3500 rpm for 10 min to separate plasma, stored at −20° C., and fed 2 hours after administration.
Determination of the content of test compounds in rat plasma after drug administration by gavage: 50 μL of plasma samples were thawed at room temperature, added with 130 μL of internal standard working solution (1000 ng/mL, acetonitrile, tolbutamide), vortexed for about 1 min and then centrifuged for 10 min at 4° C. and 13000 rpm. 50 μL of supernatant was mixed with 100 μL of 50% acetonitrile in water, and then the sample was injected for LC/MS/MS analysis.

[3] = obese patients, cited from earlier work

T1 sequence (P43220 24-463): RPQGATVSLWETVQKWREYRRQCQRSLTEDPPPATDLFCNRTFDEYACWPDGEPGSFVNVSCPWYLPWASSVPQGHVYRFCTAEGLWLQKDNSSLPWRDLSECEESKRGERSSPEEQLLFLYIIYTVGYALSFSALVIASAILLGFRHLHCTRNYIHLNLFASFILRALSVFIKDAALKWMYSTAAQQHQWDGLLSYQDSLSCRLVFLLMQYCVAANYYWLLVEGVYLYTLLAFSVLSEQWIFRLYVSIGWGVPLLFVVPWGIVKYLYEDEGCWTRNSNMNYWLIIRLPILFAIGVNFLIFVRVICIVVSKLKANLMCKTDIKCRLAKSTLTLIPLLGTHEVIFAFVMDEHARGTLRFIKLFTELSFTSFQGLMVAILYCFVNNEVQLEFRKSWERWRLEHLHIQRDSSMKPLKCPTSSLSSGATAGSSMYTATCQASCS

Row | Compound | EC50 (human GLP-1R receptor) [nM] | F ([1]; 50 mg/kg PO vs 1 mg/kg IV, oral bioavailability) [%] | Cmax ([1]; male, 1 mg/kg IV, plasma) [ng/mL] | Tmax ([1]; male, 1 mg/kg IV, plasma) [h] | clearance ([1]; male, 1 mg/kg IV, plasma) [mL/min/kg] | half-life ([1]; male, 1 mg/kg IV, plasma) [h] | AUC(0-t) ([1]; male, 1 mg/kg IV, plasma) [ng·h/mL] | Cmax ([1]; male, 50 mg/kg PO, plasma) [ng/mL] | Tmax ([1]; male, 50 mg/kg PO, plasma) [h] | half-life ([1]; male, 50 mg/kg PO, plasma) [h] | concentration at 24 h ([1]; male, 50 mg/kg PO, plasma, 24 h, read-out: C24 h) [ng/mL] | AUC(0-t) ([1]; male, 50 mg/kg PO, plasma) [ng·h/mL] | AUC(0-inf) [2] [ng·h/mL] | Cmax [2] [ng/mL] | Tmax [2] [h] | half-life [2] [h] | patients with ≥5% weight loss ([3]; 2.4 mg group, 68 weeks) [%] | decrease of mean baseline body weight ([3]; 2.4 mg, 68 weeks of treatment, baseline 105.3 kg) [%]
1 | O=C(O)c1ccc2nc(CN3CCC(c4ccccc4OCc4ccc(Cl)cc4F)CC3)n(C[C@@H]3CCO3)c2c1 [Compound 3] | 0.9 | 51.2 | 1590 | 0.083 | 19.2 | 0.98 | 898 | 2440 | 2.5 | 22.6 | 597 | 23000 | 1030 | 1160 | 0.25 | 2.58 | – | –
2 | semaglutide | – | – | – | – | – | – | – | – | – | – | – | – | – | – | – | – | 86.4 | 14.9
